The results in this text go back to patent publication US20110045593A1, “Transgenically mitigating the establishment and spread of transgenic algae in natural ecosystems by suppressing the activity of carbonic anhydrase” (priority 2009, published 2011).

SMILES strings stand for the structures.

For assay [1], the system named is Nannochloropsis oculata CS-179. In words: Photosynthetic carbon dioxide fixation measured as oxygen evolution with an oxygen electrode, carbonic anhydrase suppressed by inhibitor. The assay is classed as cell-based. Conditions: 300 μM, incubated just prior to measurement. Here is the method: Cultures were incubated with ethoxyzolamide just prior to measurement.
Measurements of O2 concentrations are performed using a Clark type O2 electrode (Pasco Scientific, Roseville, Calif., USA). 20 ml of cell suspension corresponding to 15 μg chlorophyll/ml are placed in the O2 electrode chamber, at relevant temperature. Cells are exposed to various light intensities and net O2 production is measured. Dark incubations are performed in air-tight vessels to follow light-independent O2 consumption.

Assay [2] concerns non-transgenic algal or cyanobacterial cells. In words: In vivo pds assay: culture in fluorochloridone solution. The assay is classed as cell-based. The conditions noted are these: 0.1 μM in standard algae or cyanobacteria culture media. Here is the method: In vivo pds assay. Putative transformed algal or cyanobacterial cells were cultured in a solution of 0.1 μM fluorochloridone in standard algae or cyanobacteria culture media.

Regarding `CCOc1ccc2nc(S(N)(=O)=O)sc2c1` [ethoxyzolamide, 6-ethoxy-2-benzothiazolesulfonamide], the “photosynthetic carbon dioxide fixation (measured as oxygen evolution)” value is recorded as “no effect” in assay [1] (high CO2 concentration (FIG. 1A; more than 2%)); “no difference in photosynthesis” in assay [1] (high CO2 concentration (FIG. 1A; more than 2%), listed as inhibitor); “decreases photosynthetic carbon dioxide fixation” in assay [1] (low CO2 concentration (FIG. 1B)); “severely deficient in photosynthesis” in assay [1] (low CO2 concentration (FIG. 1B), listed as inhibitor).

Consider `O=C1C(Cl)C(CCl)CN1c1cccc(C(F)(F)F)c1` (centres unmarked) [fluorochloridone], for which, in assay [2], the “killing of non-transgenic cells” value is listed as “all non-transgenic cells are killed”.
